Literature values as cited in patent publication US6403086B1, “Administering extracts of morinda citrifolia, red wine, prune, blueberry, pomegranate, apple and an enzyme mixture” (priority 2001, dated 2002).

Conditions: supplementation with 30 IU to 100 IU

vitamin E
lower risk of heart disease: 41%
